Test results published in US11427553B2, “Dihydrooxadiazinones” (Bayer Aktiengesellschaft, priority 2017, dated 2022).

Assays:
[1] = tested on: NCIH1563 cells; experiment: Assay 2 cell proliferation measurement, NCIH1563; assay type: cell-based; conditions: Homo sapiens, NCI-H1563, Lung adenocarcinoma, read-out: Anti-proliferation IC50 [nM] NCIH1563
Method: (§1) Cell Proliferation Measurement
(§2) The antiproliferative activity of the compounds of the general formula (I) was examined in vitro in human cancer cells. For this purpose, 500 cells, including HeLa cells, A2058 cells, DU145 cells, HMCB cells, IGR37 cells, NCIH1734 cells, OSRC2 cells, or 750 cells, including CAL51 cells, COL0741 cells, DBTRG05MG cells, DKMG cells, G292CLONEA141B1 cells, GB1 cells, HEL cells, HEL9217 cells, JHUEM1 cells, L3.3 cells, LI7 cells, TE4 cells, or 1000 cells, including 8505C cells, HUT78 cells, NCIH1563 cells, NCIH2122 cells, NCIH2172 cells, RVH421 cells, SKMEL3 cells, or 1500 cells, including C32 cells, HS578T cells, JHOM1 cells, NCIH196 cells, OVKATE cells, were plated in 384-well plates with appropriate growth medium and incubated at 37° C. overnight. […] After 72 h, the cells were treated with 20 μl/well of 50% CTG solution in PBS (Promega Cell Titer Glo (catalogue #G755B and G756B)) and incubated at room temperature for 10 min, and luminescence was measured by means of a VICTOR V (Perkin Elmer), in order to determine cell viability at the end of treatment. The percentage effect on cell growth and the IC50 derived therefrom were determined for each test substance using the values from untreated wells (=percent viability). The IC50 values were calculated using a 4-parameter fit.

[2] = tested on: TE4 cells; experiment: Assay 2 cell proliferation measurement, TE4; assay type: cell-based; conditions: Homo sapiens, Oesophagus squamous cell carcinoma, read-out: Anti-proliferation IC50 [nM] TE4
Method: as §1, §2

[3] = tested on: DBTRG-05-MG cells; experiment: Assay 1 cell proliferation measurement, DBTRG-05-MG; assay type: cell-based; conditions: Homo sapiens, Glioblastoma, read-out: Anti-proliferation IC50 [nM] DBTRG-05-MG
[4] = tested on: CAL51 cells; experiment: Assay 2 cell proliferation measurement, CAL51; assay type: cell-based; conditions: Homo sapiens, CAL-51, Breast NS, read-out: Anti-proliferation IC50 [nM] CAL51
Method: as §1, §2

[5] = tested on: NCIH2122 cells; experiment: Assay 2 cell proliferation measurement, NCIH2122; assay type: cell-based; conditions: Homo sapiens, NCI-H2122, Lung adenocarcinoma, read-out: Anti-proliferation IC50 [nM] NCIH2122
Method: as §1, §2

[6] = tested on: JHOM1 cells; experiment: Assay 2 cell proliferation measurement, JHOM1; assay type: cell-based; conditions: Homo sapiens, Ovary adenocarcinoma, read-out: Anti-proliferation IC50 [nM] JHOM1
Method: as §1, §2

[7] = tested on: DU145 cells; experiment: Assay 2 cell proliferation measurement, DU145; assay type: cell-based; conditions: Homo sapiens, DU-145, Prostate NS, read-out: Anti-proliferation IC50 [nM] DU145
Method: as §1, §2

[8] = tested on: HEL92.1.7 xenograft (AML); experiment: Assay 3 in vivo xenotransplantation model, HEL92.1.7; conditions: HEL92.1.7 AML xenograft, mice, 40 mg/kg 2QD p.o.; * P < 0.05 vs control
Text: (§3) In Vivo Xenotransplantation Models
(§4) The anti-tumor activities of Compounds of examples 135 and 146 were examined in murine xenotransplantation models of human cancer. For this purpose, mice were implanted subcutaneously with tumor cells. At a mean tumor size of 20-40 mm^2 animals were randomized into treatment and control groups (at least n=10 animals/group) and treatment started with vehicle only or respective Compound (formulation: 90% PEG400/10% Ethanol; application route: per os (“p.o.”), orally). The oral application volume was 10 ml/kg. In the case of twice daily treatments, the time interval between two applications per day was 6-7 h. The tumor size and the body weight were determined at least weekly. The tumor area was detected by means of an electronic caliper [length (mm)×width (mm)]. The experiment was ended when the study reached the pre-determined ethical endpoint based on German and European animal welfare regulations. In vivo anti-tumor efficacy is presented as T/C ratio at study end (Treatment/Control; mean tumor weight of treatment group/mean tumor weight of control group) in Table 8. A compound having a T/C below 0.5 is defined as active (i.e., effective). Statistical analysis was assessed using SigmaStat software. A one-way analysis of variance was performed and differences to the control were compared by a pair-wise comparison procedure (Dunn's method).

[9] = tested on: HeLa xenograft (Cervical cancer); experiment: Assay 3 in vivo xenotransplantation model, HeLa; conditions: mice, 5 mg/kg 2QD p.o., * P < 0.05 vs control
Text: as §3, §4

[10] = tested on: A2058 xenograft (Melanoma); experiment: Assay 3 in vivo xenotransplantation model, A2058; conditions: mice, 10 mg/kg 2QD p.o., * P < 0.05 vs control
Text: as §3, §4

[11] = tested on: PA-1 xenograft (Ovarian teratocarcinoma); experiment: Assay 3 in vivo xenotransplantation model, PA-1; conditions: PA-1 ovarian teratocarcinoma xenograft, mice
Text: as §3, §4

[12] = tested on: xenograft models of human tumors; experiment: Assay 3 in vivo xenotransplantation models of human cancer (overall statement); conditions: monotherapy treatment, p.o., mice
Text: as §3, §4

[13] = tested on: H4 cells; experiment: Assay 1 cell proliferation measurement, H4; assay type: cell-based; conditions: Homo sapiens; Astrocytoma; read-out: Anti-proliferation IC50 [nM] H4
[14] = tested on: NCI-H1734 cells; experiment: Assay 1 cell proliferation measurement, NCI-H1734; assay type: cell-based; conditions: Homo sapiens, Lung, read-out: Anti-proliferation IC50 [nM] NCI-H1734
[15] = tested on: IGR-1 cells; experiment: Assay 1 cell proliferation measurement, IGR-1; assay type: cell-based; conditions: Homo sapiens, Melanoma, read-out: Anti-proliferation IC50 [nM] IGR-1
[16] = tested on: HMCB cells; experiment: Assay 1 cell proliferation measurement, HMCB; assay type: cell-based; conditions: Homo sapiens, Melanoma, read-out: Anti-proliferation IC50 [nM] HMCB
[17] = tested on: COLO741 cells; experiment: Assay 1 cell proliferation measurement, COLO741; assay type: cell-based; conditions: Homo sapiens, COLO-741; Melanoma; read-out: Anti-proliferation IC50 [nM] COLO741
[18] = tested on: C32 cells; experiment: Assay 1 cell proliferation measurement, C32; assay type: cell-based; conditions: Homo sapiens, Melanoma, read-out: Anti-proliferation IC50 [nM] C32

With `C[C@@H]1OC(=O)NN=C1c1ccc(-n2ccc(C(F)(F)F)n2)c(C(F)(F)F)c1` [Example 265, (6S)-6-Methyl-5-{3-(trifluoromethyl)-4-[3-(trifluoromethyl)-1H-pyrazol-1-yl]phenyl}-3,6-dihydro-2H-1,3,4-oxadiazin-2-one] the IC50 [1] was 46 nM and the IC50 [2] was 41 nM.

For `O=C1NN=C(c2ccc(-c3cnn(C(F)F)c3)c(C(F)(F)F)c2)CO1` [Example 146, 5-{4-[1-(Difluoromethyl)-1H-pyrazol-4-yl]-3-(trifluoromethyl)phenyl}-3,6-dihydro-2H-1,3,4-oxadiazin-2-one], the IC50 [3] was 14 nM, the IC50 [4] was 37 nM and the IC50 [5] was 3 nM. For the same compound, the IC50 [6] was 8 nM, the IC50 [7] was 14 nM and the “T/C (mean final tumor weight treatment / control)” value [8] was 0.08*. For the same compound, the “T/C (mean final tumor weight treatment / control)” value [9] was 0.08*, the “T/C (mean final tumor weight treatment / control)” value [10] was 0.23* and the “T/C (mean final tumor weight treatment / control)” value ([11]; 20 mg/kg 2QD p.o., * P < 0.05 vs control) was 0.49*. The “anti-tumor efficacy in xenograft models of human tumors” value [12] was “potent anti-tumor efficacy”.

Compound `O=C1NN=C(c2ccc(-c3ccc(Cl)cc3)c(C(F)(F)F)c2)CO1` [Example 31, 5-[4′-Chloro-2-(trifluoromethyl)biphenyl-4-yl]-3,6-dihydro-2H-1,3,4-oxadiazin-2-one] has an IC50 [3] of 56 nM.

`O=C1NN=C(c2ccc(-c3ccc(F)cc3)c(C(F)(F)F)c2)CO1` [Example 3, 5-[4′-Fluoro-2-(trifluoromethyl)biphenyl-4-yl]-3,6-dihydro-2H-1,3,4-oxadiazin-2-one] gave an IC50 [13] of 25 nM, an IC50 [14] of 13 nM and an IC50 [15] of 99 nM. It also gave an IC50 [16] of 26 nM.

With `C[C@@H]1OC(=O)NN=C1c1ccc(-c2ccc(F)cc2)c(C(F)(F)F)c1` [Example 135, (6S)-5-[4′-Fluoro-2-(trifluoromethyl)biphenyl-4-yl]-6-methyl-3,6-dihydro-2H-1,3,4-oxadiazin-2-one] the IC50 [15] was > 100 nM, the IC50 [16] was 13 nM and the IC50 [17] was 1 nM. The IC50 [18] was 15 nM, the IC50 [1] was 18 nM and the IC50 [2] was 15 nM. For the same compound, the “T/C (mean final tumor weight treatment / control)” value ([11]; 5 mg/kg 2QD p.o.) was 0.63 and the “anti-tumor efficacy in xenograft models of human tumors” value [12] was “potent anti-tumor efficacy”.
